*1 amine or outer side, *2 acyl side, *3 side chain or, on linkers, in order; H or OH if unused. Where a SMILES comes first, the peptide text is derived from it. Side-chain parts run from the residue outwards. γGlu = O=C(O)[C@H](CCC(=O)[*:2])N[*:1]
molecular target: T1, glucagon receptor (Homo sapiens, UniProt P47871); test: Assay (I) Glucagon activity (cAMP biosensor, FLIPR); type: cell-based; settings: HEK-293 cells with cloned glucagon receptor and cAMP biosensor; end point after 6 minutes
T1 construct: expressed in transfected cells
In short: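 HEK-293 cells expressing glucagon receptor with membrane cAMP biosensor (ACTOne), calcium-dye loaded with probenecid and a PDE inhibitor.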

T1 sequence (P47871 26-477): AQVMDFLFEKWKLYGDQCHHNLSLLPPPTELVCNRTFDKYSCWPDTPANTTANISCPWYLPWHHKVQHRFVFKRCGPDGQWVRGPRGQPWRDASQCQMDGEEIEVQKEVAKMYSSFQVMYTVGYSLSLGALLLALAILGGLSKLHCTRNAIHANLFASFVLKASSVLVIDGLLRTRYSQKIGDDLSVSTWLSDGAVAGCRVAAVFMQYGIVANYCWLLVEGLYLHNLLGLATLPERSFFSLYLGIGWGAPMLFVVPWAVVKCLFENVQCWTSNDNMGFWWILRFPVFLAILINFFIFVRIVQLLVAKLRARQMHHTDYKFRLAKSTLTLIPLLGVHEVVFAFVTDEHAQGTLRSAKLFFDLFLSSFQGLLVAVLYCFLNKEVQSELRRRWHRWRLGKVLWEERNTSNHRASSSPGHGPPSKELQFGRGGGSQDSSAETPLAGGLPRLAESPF

EC50	SMILES
0.0145 nM	CC(=O)N[C@@H](CCC(=O)N[C@@H](CCC(=O)N[C@@H](CCC(=O)N[C@@H](CCC(=O)NCCCC[C@H](NC(=O)[C@@H](NC(=O)[C@H](Cc1ccccc1)NC(=O)[C@H](CC(=O)O)NC(=O)[C@H](C)NC(=O)[C@H](C)NC(=O)[C@H](CCCNC(=N)N)NC(=O)[C@H](CCCNC(=N)N)NC(=O)[C@H](CO)NC(=O)[C@H](CC(=O)O)NC(=O)[C@H](CC(C)C)NC(=O)[C@H](Cc1ccc(O)cc1)NC(=O)[C@H](CCCCN)NC(=O)[C@H](CO)NC(=O)[C@H](Cc1ccc(O)cc1)NC(=O)[C@H](CC(=O)O)NC(=O)[C@H](CO)NC(=O)[C@@H](NC(=O)[C@H](Cc1ccccc1)NC(=O)[C@@H](NC(=O)CNC(=O)[C@H](Cc1c[nH]cn1)NC(=O)[C@H](CO)NC(=O)[C@@H](N)Cc1c[nH]cn1)[C@@H](C)O)[C@@H](C)O)C(C)C)C(=O)N[C@@H](Cc1c[nH]c2ccccc12)C(=O)N[C@@H](CC(C)C)C(=O)N[C@@H](CC(C)C)C(=O)N[C@@H](CO)C(=O)N[C@H](C(=O)O)[C@@H](C)O)C(=O)O)C(=O)O)C(=O)O)C(=O)O [Example 4, N^ε24-[(4S)-4-[[(4S)-4-[[(4S)-4-[[(4S)-4-acetamido-4-carboxybutanoyl]amino]-4-carboxybutanoyl]amino]-4-carboxybutanoyl]amino]-4-carboxybutanoyl]-[His3,Ala20,Lys24,Leu27,Ser28]-Glucagon] (H-HSHGTFTSDYSKYLDSRRAADFVK([γGlu-γGlu-γGlu-γGlu-Ac])WLLST-OH)
0.0105 nM	CC(=O)N[C@@H](CCC(=O)N[C@@H](CCC(=O)N[C@@H](CCC(=O)N[C@@H](CCC(=O)NCCCC[C@H](NC(=O)[C@@H](NC(=O)[C@H](Cc1ccccc1)NC(=O)[C@H](CC(=O)O)NC(=O)[C@H](CCC(N)=O)NC(=O)[C@H](C)NC(=O)[C@H](CCCNC(=N)N)NC(=O)[C@H](CCCNC(=N)N)NC(=O)[C@H](CO)NC(=O)[C@H](CCC(=O)O)NC(=O)[C@H](CC(C)C)NC(=O)[C@H](Cc1ccc(O)cc1)NC(=O)[C@H](CCCCN)NC(=O)[C@H](CO)NC(=O)[C@H](Cc1ccc(O)cc1)NC(=O)[C@H](CC(=O)O)NC(=O)[C@H](CO)NC(=O)[C@@H](NC(=O)[C@H](Cc1ccccc1)NC(=O)[C@@H](NC(=O)CNC(=O)[C@H](CCC(N)=O)NC(=O)[C@H](CO)NC(=O)[C@@H](N)Cc1c[nH]cn1)[C@@H](C)O)[C@@H](C)O)C(C)C)C(=O)N[C@@H](Cc1c[nH]c2ccccc12)C(=O)N[C@@H](CC(C)C)C(=O)N[C@@H](CC(C)C)C(=O)N[C@@H](CO)C(=O)N[C@H](C(=O)O)[C@@H](C)O)C(=O)O)C(=O)O)C(=O)O)C(=O)O [Example 23, N^ε24-[(4S)-4-[[(4S)-4-[[(4S)-4-[[(4S)-4-acetamido-4-carboxybutanoyl]amino]-4-carboxybutanoyl]amino]-4-carboxybutanoyl]amino]-4-carboxybutanoyl]-[Glu15,Lys24,Leu27,Ser28]-Glucagon]
0.0029 nM	CC(=O)N[C@@H](CCC(=O)N[C@@H](CCC(=O)N[C@@H](CCC(=O)N[C@@H](CCC(=O)NCCCC[C@H](NC(=O)[C@@H](NC(=O)[C@H](Cc1ccccc1)NC(=O)[C@H](CC(=O)O)NC(=O)[C@H](CCC(N)=O)NC(=O)[C@H](C)NC(=O)[C@H](CCCNC(=N)N)NC(=O)[C@H](CCCNC(=N)N)NC(=O)[C@H](CC(C)C)NC(=O)[C@H](CC(=O)O)NC(=O)[C@H](CC(C)C)NC(=O)[C@H](Cc1ccc(O)cc1)NC(=O)[C@H](CCCCN)NC(=O)[C@H](CO)NC(=O)[C@H](Cc1ccc(O)cc1)NC(=O)[C@H](CC(=O)O)NC(=O)[C@H](CO)NC(=O)[C@@H](NC(=O)[C@H](Cc1ccccc1)NC(=O)[C@@H](NC(=O)CNC(=O)[C@H](CCC(N)=O)NC(=O)[C@H](CO)NC(=O)[C@@H](N)Cc1c[nH]cn1)[C@@H](C)O)[C@@H](C)O)C(C)C)C(=O)N[C@@H](Cc1c[nH]c2ccccc12)C(=O)N[C@@H](CC(C)C)C(=O)N[C@@H](CC(C)C)C(=O)N[C@@H](CO)C(=O)N[C@H](C(=O)O)[C@@H](C)O)C(=O)O)C(=O)O)C(=O)O)C(=O)O [Example 38, N^ε24-[(4S)-4-[[(4S)-4-[[(4S)-4-[[(4S)-4-acetamido-4-carboxybutanoyl]amino]-4-carboxybutanoyl]amino]-4-carboxybutanoyl]amino]-4-carboxybutanoyl]-[Leu16,Lys24,Leu27,Ser28]-Glucagon]
0.0105 nM	CC(=O)N[C@@H](CCC(=O)N[C@@H](CCC(=O)N[C@@H](CCC(=O)N[C@@H](CCC(=O)NCCCC[C@H](NC(=O)[C@@H](NC(=O)[C@H](Cc1ccccc1)NC(=O)[C@H](CC(=O)O)NC(=O)[C@H](CCC(N)=O)NC(=O)[C@H](C)NC(=O)[C@H](CCCNC(=N)N)NC(=O)[C@H](CCCNC(=N)N)NC(=O)[C@H](CO)NC(=O)[C@H](CC(=O)O)NC(=O)[C@H](CC(C)C)NC(=O)[C@H](Cc1ccc(O)cc1)NC(=O)[C@H](CCCCN)NC(=O)[C@H](CO)NC(=O)[C@H](Cc1ccc(O)cc1)NC(=O)[C@H](CC(=O)O)NC(=O)[C@H](CO)NC(=O)[C@@H](NC(=O)[C@H](Cc1ccccc1)NC(=O)[C@@H](NC(=O)CNC(=O)[C@H](Cc1c[nH]cn1)NC(=O)[C@H](CO)NC(=O)[C@@H](N)Cc1c[nH]cn1)[C@@H](C)O)[C@@H](C)O)C(C)C)C(=O)N[C@@H](Cc1c[nH]c2ccccc12)C(=O)N[C@@H](CC(C)C)C(=O)N[C@@H](CC(C)C)C(=O)N[C@@H](CO)C(=O)N[C@H](C(=O)O)[C@@H](C)O)C(=O)O)C(=O)O)C(=O)O)C(=O)O [Example 3]

Second part, the compound before the results:

SMILES	EC50
CC(=O)N[C@@H](CCC(=O)N[C@@H](CCC(=O)N[C@@H](CCC(=O)N[C@@H](CCC(=O)NCCCC[C@H](NC(=O)[C@@H](NC(=O)[C@H](Cc1ccccc1)NC(=O)[C@H](CC(=O)O)NC(=O)[C@H](CCC(N)=O)NC(=O)[C@H](C)NC(=O)[C@H](CCCNC(=N)N)NC(=O)[C@H](CCCNC(=N)N)NC(=O)[C@H](CC(C)C)NC(=O)[C@H](CC(=O)O)NC(=O)[C@H](CC(C)C)NC(=O)[C@H](Cc1ccc(O)cc1)NC(=O)[C@H](CCCCN)NC(=O)[C@H](CO)NC(=O)[C@H](Cc1ccc(O)cc1)NC(=O)[C@H](CC(=O)O)NC(=O)[C@H](CO)NC(=O)[C@@H](NC(=O)[C@H](Cc1ccccc1)NC(=O)[C@@H](NC(=O)CNC(=O)[C@H](CCC(N)=O)NC(=O)[C@H](C)NC(=O)[C@@H](N)Cc1c[nH]cn1)[C@@H](C)O)[C@@H](C)O)C(C)C)C(=O)N[C@@H](Cc1c[nH]c2ccccc12)C(=O)N[C@@H](CC(C)C)C(=O)N[C@@H](CC(C)C)C(=O)N[C@@H](CO)C(=O)N[C@H](C(=O)O)[C@@H](C)O)C(=O)O)C(=O)O)C(=O)O)C(=O)O [Example 42] (H-HAQGTFTSDYSKYLDLRRAQDFVK([γGlu-γGlu-γGlu-γGlu-Ac])WLLST-OH)	0.008 nM
CC(=O)N[C@@H](CCC(=O)N[C@@H](CCC(=O)N[C@@H](CCC(=O)N[C@@H](CCC(=O)NCCCC[C@H](NC(=O)[C@@H](NC(=O)[C@H](Cc1ccccc1)NC(=O)[C@H](CC(=O)O)NC(=O)[C@H](CCC(N)=O)NC(=O)[C@H](C)NC(=O)[C@H](CCCNC(=N)N)NC(=O)[C@H](CCCNC(=N)N)NC(=O)[C@H](CO)NC(=O)[C@H](CCC(=O)O)NC(=O)[C@H](CC(C)C)NC(=O)[C@H](Cc1ccc(O)cc1)NC(=O)[C@H](CCCCN)NC(=O)[C@H](CO)NC(=O)[C@H](Cc1ccc(O)cc1)NC(=O)[C@H](CC(=O)O)NC(=O)[C@H](CO)NC(=O)[C@@H](NC(=O)[C@H](Cc1ccccc1)NC(=O)[C@@H](NC(=O)CNC(=O)[C@H](CCC(N)=O)NC(=O)[C@H](CO)NC(=O)[C@@H](N)Cc1c[nH]cn1)[C@@H](C)O)[C@@H](C)O)C(C)C)C(=O)N[C@@H](Cc1c[nH]c2ccccc12)C(=O)N[C@@H](CC(C)C)C(=O)N[C@@H](CC(C)C)C(=O)N[C@@H](CC(N)=O)C(=O)N[C@H](C(=O)O)[C@@H](C)O)C(=O)O)C(=O)O)C(=O)O)C(=O)O [Example 17, N^ε24-[(4S)-4-[[(4S)-4-[[(4S)-4-[[(4S)-4-acetamido-4-carboxybutanoyl]amino]-4-carboxybutanoyl]amino]-4-carboxybutanoyl]amino]-4-carboxybutanoyl]-[Glu15,Lys24,Leu27]-Glucagon]	0.0165 nM
CC(C)C[C@H](NC(=O)[C@H](Cc1c[nH]c2ccccc12)NC(=O)[C@H](CCCCNC(=O)CC[C@H](NC(=O)CC[C@H](NC(=O)CC[C@H](NC(=O)CC[C@H](N)C(=O)O)C(=O)O)C(=O)O)C(=O)O)NC(=O)[C@@H](NC(=O)[C@H](Cc1ccccc1)NC(=O)[C@H](CC(=O)O)NC(=O)[C@H](C)NC(=O)[C@H](C)NC(=O)[C@H](CCCNC(=N)N)NC(=O)[C@H](CCCNC(=N)N)NC(=O)[C@@H](NC(=O)[C@H](CC(=O)O)NC(=O)[C@H](CC(C)C)NC(=O)[C@H](Cc1ccc(O)cc1)NC(=O)[C@H](CCCCN)NC(=O)[C@H](CO)NC(=O)[C@H](Cc1ccc(O)cc1)NC(=O)[C@H](CC(=O)O)NC(=O)[C@H](CO)NC(=O)[C@@H](NC(=O)[C@H](Cc1ccccc1)NC(=O)[C@@H](NC(=O)CNC(=O)[C@H](Cc1c[nH]cn1)NC(=O)[C@H](CO)NC(=O)[C@@H](N)Cc1c[nH]cn1)[C@@H](C)O)[C@@H](C)O)[C@@H](C)O)C(C)C)C(=O)N[C@@H](CC(C)C)C(=O)N[C@@H](CO)C(=O)N[C@H](C(=O)O)[C@@H](C)O [Example 7, N^ε24-[(4S)-4-[[(4S)-4-[[(4S)-4-[[(4S)-4-amino-4-carboxybutanoyl]amino]-4-carboxybutanoyl]amino]-4-carboxybutanoyl]amino]-4-carboxybutanoyl]-[His3,Thr16,Ala20,Lys24,Leu27,Ser28]-Glucagon] (H-HSHGTFTSDYSKYLDTRRAADFVK([γGlu-γGlu-γGlu-γGlu])WLLST-OH)	0.0243 nM
CC(=O)N[C@@H](CCC(=O)N[C@@H](CCC(=O)N[C@@H](CCC(=O)N[C@@H](CCC(=O)NCCCC[C@H](NC(=O)[C@@H](NC(=O)[C@H](Cc1ccccc1)NC(=O)[C@H](CC(=O)O)NC(=O)[C@H](CCC(N)=O)NC(=O)[C@H](C)NC(=O)[C@H](CCCNC(=N)N)NC(=O)[C@H](CCCNC(=N)N)NC(=O)[C@H](Cc1c[nH]c2ccccc12)NC(=O)[C@H](CC(=O)O)NC(=O)[C@H](CC(C)C)NC(=O)[C@H](Cc1ccc(O)cc1)NC(=O)[C@H](CCCCN)NC(=O)[C@H](CO)NC(=O)[C@H](Cc1ccc(O)cc1)NC(=O)[C@H](CC(=O)O)NC(=O)[C@H](CO)NC(=O)[C@@H](NC(=O)[C@H](Cc1ccccc1)NC(=O)[C@@H](NC(=O)CNC(=O)[C@H](CCC(N)=O)NC(=O)[C@H](CO)NC(=O)[C@@H](N)Cc1c[nH]cn1)[C@@H](C)O)[C@@H](C)O)C(C)C)C(=O)N[C@@H](Cc1c[nH]c2ccccc12)C(=O)N[C@@H](CC(C)C)C(=O)N[C@@H](CC(C)C)C(=O)N[C@@H](CO)C(=O)N[C@H](C(=O)O)[C@@H](C)O)C(=O)O)C(=O)O)C(=O)O)C(=O)O [Example 34]	0.0023 nM

From patent publication US20140031278A1, “Novel Glucagon Analogues” (NOVO NORDISK A/S, priority 2011, published 2014)
